Measured values from ChEMBL document CHEMBL3612057, “Discovery of indolizines containing triazine moiety as new leads for the development of antitumoral agents targeting mitotic events” (2015).
Activity calls are given as the source filed them. The rule behind the calls is not given here.

Key:
SR = assay: Cytotoxicity against human SR cells assessed as growth inhibition at 10 uM after 24 hrs by SRB assay; type: functional
K562 = assay: Cytotoxicity against human K562 cells assessed as growth inhibition at 10 uM after 24 hrs by SRB assay; type: functional
UACC-257 = assay: Cytotoxicity against human UACC257 cells assessed as growth inhibition at 10 uM after 24 hrs by SRB assay; type: functional
UACC-62 = assay: Cytotoxicity against human UACC62 cells assessed as growth inhibition at 10 uM after 24 hrs by SRB assay; type: functional
SF-539 = assay: Cytotoxicity against human SF539 cells assessed as growth inhibition at 10 uM after 24 hrs by SRB assay; type: functional
[1] = Cytotoxicity against human Hs578T cells assessed as growth inhibition at 10 uM after 24 hrs by SRB assay; type: functional; conditions: Hs-578T, read-out: GI
Ovis aries = species: Ovis aries; assay: Inhibition of sheep tubulin polymerization at 100 uM by fluorescence assay
A549 = assay: Cytotoxicity against human A549 cells assessed as growth inhibition at 10 uM after 24 hrs by SRB assay; type: functional
786-0 = assay: Cytotoxicity against human 786-0 cells assessed as growth inhibition at 10 uM after 24 hrs by SRB assay; type: functional
NCI-H460 = assay: Cytotoxicity against human NCI-H460 cells assessed as growth inhibition at 10 uM after 24 hrs by SRB assay; type: functional
OVCAR-3 = assay: Cytotoxicity against human OVCAR3 cells assessed as growth inhibition at 10 uM after 24 hrs by SRB assay; type: functional; conditions: OVCAR-3, 24 h, read-out: GI
MCF7 = assay: Cytotoxicity against human MCF7 cells assessed as growth inhibition at 10 uM after 24 hrs by SRB assay; type: functional; conditions: MCF7, 24 h, read-out: GI
HL-60(TB) = assay: Cytotoxicity against human HL-60(TB) cells assessed as growth inhibition at 10 uM after 24 hrs by SRB assay; type: functional
NCI-H522 = assay: Cytotoxicity against human NCI-H522 cells assessed as growth inhibition at 10 uM after 24 hrs by SRB assay; type: functional
SK-MEL-28 = assay: Cytotoxicity against human SK-MEL-28 cells assessed as growth inhibition at 10 uM after 24 hrs by SRB assay; type: functional; conditions: SK-MEL-28, 24 h, read-out: GI
HOP-92 = assay: Cytotoxicity against human HOP92 cells assessed as growth inhibition at 10 uM after 24 hrs by SRB assay; type: functional
U-251 = assay: Cytotoxicity against human U251 cells assessed as growth inhibition at 10 uM after 24 hrs by SRB assay; type: functional
SNB-75 = assay: Cytotoxicity against human SNB75 cells assessed as growth inhibition at 10 uM after 24 hrs by SRB assay; type: functional; conditions: SNB-75, 24 h, read-out: GI
NCI/ADR-RES = assay: Cytotoxicity against human NCI/ADR-RES cells assessed as growth inhibition at 10 uM after 24 hrs by SRB assay; type: functional; conditions: read-out: GI
TK-10 = assay: Cytotoxicity against human TK10 cells assessed as growth inhibition at 10 uM after 24 hrs by SRB assay; type: functional
MDA-MB-435 = assay: Cytotoxicity against human MDA-MB-435 cells assessed as growth inhibition at 10 uM after 24 hrs by SRB assay; type: functional
T47D = assay: Cytotoxicity against human T47D cells assessed as growth inhibition at 10 uM after 24 hrs by SRB assay; type: functional
Malme-3M = assay: Cytotoxicity against human MALME-3M cells assessed as growth inhibition at 10 uM after 24 hrs by SRB assay; type: functional; conditions: read-out: GI
PC-3 = assay: Cytotoxicity against human PC3 cells assessed as growth inhibition at 10 uM after 24 hrs by SRB assay; type: functional
MDA-MB-231 = assay: Cytotoxicity against human MDA-MB-231 cells assessed as growth inhibition at 10 uM after 24 hrs by SRB assay; type: functional; conditions: MDA-MB-231, 24 h, read-out: GI
HCT-116 = assay: Cytotoxicity against human HCT116 cells assessed as growth inhibition at 10 uM after 24 hrs by SRB assay; type: functional
ACHN = assay: Cytotoxicity against human ACHN cells assessed as growth inhibition at 10 uM after 24 hrs by SRB assay; type: functional; conditions: read-out: GI
NCI-H226 = assay: Cytotoxicity against human NCI-H226 cells assessed as growth inhibition at 10 uM after 24 hrs by SRB assay; type: functional
OVCAR-4 = assay: Cytotoxicity against human OVCAR4 cells assessed as growth inhibition at 10 uM after 24 hrs by SRB assay; type: functional
HOP-62 = assay: Cytotoxicity against human HOP62 cells assessed as growth inhibition at 10 uM after 24 hrs by SRB assay; type: functional
RXF 393 = assay: Cytotoxicity against human RXF393 cells assessed as growth inhibition at 10 uM after 24 hrs by SRB assay; type: functional; conditions: RXF 393, 24 h, read-out: GI
SK-MEL-5 = assay: Cytotoxicity against human SK-MEL-5 cells assessed as growth inhibition at 10 uM after 24 hrs by SRB assay; type: functional
OVCAR-8 = assay: Cytotoxicity against human OVCAR8 cells assessed as growth inhibition at 10 uM after 24 hrs by SRB assay; type: functional; conditions: OVCAR-8, 24 h, read-out: GI
CCRF-CEM = assay: Cytotoxicity against human CCRF-CEM cells assessed as growth inhibition at 10 uM after 24 hrs by SRB assay; type: functional
SK-OV-3 = assay: Cytotoxicity against human SKOV3 cells assessed as growth inhibition at 10 uM after 24 hrs by SRB assay; type: functional; conditions: SK-OV-3, 24 h, read-out: GI
RPMI-8226 = assay: Cytotoxicity against human RPMI8226 cells assessed as growth inhibition at 10 uM after 24 hrs by SRB assay; type: functional
SF-295 = assay: Cytotoxicity against human SF295 cells assessed as growth inhibition at 10 uM after 24 hrs by SRB assay; type: functional; conditions: SF-295, 24 h, read-out: GI
CAKI-1 = assay: Cytotoxicity against human CAKI-1 cells assessed as growth inhibition at 10 uM after 24 hrs by SRB assay; type: functional

Compound	growth inhibition (GI) (UACC-257)	inhibition of growth at 10 µM [1]	inhibition (Ovis aries)	growth inhibition (GI) (NCI-H460)	inhibition of growth at 10 µM (OVCAR-3)	inhibition of growth at 10 µM (MCF7)	inhibition of growth at 10 µM (SK-MEL-28)	growth inhibition (GI) (HOP-92)	growth inhibition (GI) (U-251)	inhibition of growth at 10 µM (SNB-75)	inhibition of growth at 10 µM (NCI/ADR-RES)	growth inhibition (GI) (TK-10)	inhibition of growth at 10 µM (Malme-3M)	inhibition of growth at 10 µM (MDA-MB-231)	inhibition of growth at 10 µM (ACHN)	growth inhibition (GI) (NCI-H226)	inhibition of growth at 10 µM (RXF 393)	inhibition of growth at 10 µM (OVCAR-8)	inhibition of growth at 10 µM (SK-OV-3)	inhibition of growth at 10 µM (SF-295)	other results
COc1nc(OC)nc(-c2cc(C(=O)c3ccc(Br)cc3)n3c(C)cccc23)n1	inactive	22%	inactive	inactive	15%	24%	14%	inactive	inactive	75%	14%	inactive	18%	27%	30%	inactive	36%	29%	20%	22%	growth inhibition (GI) (SR): inactive; growth inhibition (GI) (K562): inactive; growth inhibition (GI) (UACC-62): inactive; growth inhibition (GI) (SF-539): inactive; growth inhibition (GI) (A549): inactive; inhibition of growth at 10 µM (786-0; 786-0, 24 h, read-out: GI): 14%; growth inhibition (GI) (HL-60(TB)): inactive; growth inhibition (GI) (NCI-H522): inactive; growth inhibition (GI) (MDA-MB-435): inactive; inhibition of growth at 10 µM (T47D; read-out: GI): 19%; growth inhibition (GI) (PC-3): inactive; growth inhibition (GI) (HCT-116): inactive; inhibition of growth at 10 µM (OVCAR-4; OVCAR-4, 24 h, read-out: GI): 18%; growth inhibition (GI) (HOP-62): inactive; growth inhibition (GI) (SK-MEL-5): inactive; growth inhibition (GI) (CCRF-CEM): inactive; growth inhibition (GI) (RPMI-8226): inactive; growth inhibition (GI) (CAKI-1): inactive
COc1nc(OC)nc(-c2cc(C(=O)c3cc(OC)c(OC)c(OC)c3)n3c(C)cccc23)n1	inactive	17%	inactive	inactive	19%	55%	14%	inactive	inactive	67%	15%	inactive	37%	17%	30%	inactive	31%	12%	18%	15%	inhibition of growth at 10 µM (SR; read-out: GI): 67%; inhibition of growth at 10 µM (K562; K562, 24 h, read-out: GI): 45%; inhibition of growth at 10 µM (UACC-62; UACC-62, 24 h, read-out: GI): 30%; inhibition of growth at 10 µM (SF-539; SF-539, 24 h, read-out: GI): 14%; inhibition of growth at 10 µM (A549; A549, 24 h, read-out: GI): 17%; growth inhibition (GI) (786-0): inactive; inhibition of growth at 10 µM (HL-60(TB); HL-60, 24 h, read-out: GI): 33%; inhibition of growth at 10 µM (NCI-H522; NCI-H522, 24 h, read-out: GI): 56%; inhibition of growth at 10 µM (MDA-MB-435; MDA-MB-435, 24 h, read-out: GI): 86%; growth inhibition (GI) (T47D): inactive; inhibition of growth at 10 µM (PC-3; PC-3, 24 h, read-out: GI): 19%; inhibition of growth at 10 µM (HCT-116; HCT-116, 24 h, read-out: GI): 15%; growth inhibition (GI) (OVCAR-4): inactive; inhibition of growth at 10 µM (HOP-62; HOP-62, 24 h, read-out: GI): 34%; inhibition of growth at 10 µM (SK-MEL-5; SK-MEL-5, 24 h, read-out: GI): 41%; inhibition of growth at 10 µM (CCRF-CEM; read-out: GI): 10%; inhibition of growth at 10 µM (RPMI-8226; RPMI-8226, 24 h, read-out: GI): 10%; inhibition of growth at 10 µM (CAKI-1; CAKI-1, 24 h, read-out: GI): 11%
